# Results published in patent US20210395210A1, “INHIBITION OF BACTERIAL CHAPERONIN SYSTEMS” (THE TRUSTEES OF INDIANA UNIVERSITY, priority 2018, published 2021).
# pIC50: −log10 of the molar value.
# Molecular target: T1, native MDH (Sus scrofa, UniProt P00346)
# T1 construct: soluble pig heart MDH from Roche, product #10127248001; purchased Roche 10127248001; host or cells: pig heart
# T1 sequence (P00346 25-338): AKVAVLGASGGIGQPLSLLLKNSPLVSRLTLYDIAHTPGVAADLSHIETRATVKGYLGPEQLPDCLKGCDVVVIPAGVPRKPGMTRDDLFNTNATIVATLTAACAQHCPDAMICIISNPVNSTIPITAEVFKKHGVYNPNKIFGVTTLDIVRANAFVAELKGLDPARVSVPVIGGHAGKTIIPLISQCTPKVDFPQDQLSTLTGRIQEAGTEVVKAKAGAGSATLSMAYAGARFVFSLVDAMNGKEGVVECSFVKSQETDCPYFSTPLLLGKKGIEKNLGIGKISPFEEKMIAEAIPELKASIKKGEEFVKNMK
# Test: Counter-screen for inhibition of native MDH enzymatic activity
# Format: biochemical, pig
# Method: Reagent Preparations & Assay Protocol: This assay was performed as described above for the GroEL/ES-dMDH refolding assay; however, the assay protocol differed in the sequence of compound addition to the assay plates. The refolding reactions were allowed to proceed for 45 min at 37° C. in the absence of test compounds (complete refolding of MDH occurs), then quenched with the EDTA stock. Compounds were then pin-transferred into the plates after the EDTA quenching step; thus, compounds effects are only possible by inhibiting the fully-refolded MDH reporter substrate. […] A340 nm measurements were recorded at 0.5 minutes (start point) and at successive time points until the amount of NADH consumed reached ˜90% (end point, generally between 20-35 minutes). Compounds were tested in 8-point, 3-fold dilution series (62.5 μM to 29 nM during the reporter reaction) in clear, flat-bottom 384-well microtiter plates. DMSO was used as a negative control, and previously discovered native MDH inhibitors were used as positive controls. […] Results presented represent the averages of IC50 values obtained from at least quadriplicate (duplicate of duplicate) replicates.
compound,measurement,setting,value
"O=C(Nc1ccccc1)c1ccccc1 [Compound 28, N-Phenylbenzamide]",pIC50,Biochemical Assay IC50 Native MDH Reporter,< 4.20
same,IC50,"log(IC50) Native MDH Reporter, log of IC50 (μM scale), with standard deviation",> 63.1 µM
